The record followed here is patent US10870832B2, “Use of small molecules to enhance MAFA expression in pancreatic endocrine cells” (Janssen Biotech, Inc., priority 2014, dated 2020).

Molecules are shown by their SMILES.

Holding throughout (format): cell-based, human
For assay [1], the system named is MAFA expression. The assay is described as follows: Stage 7 treatment, real-time PCR of MAFA (Example 7). Particulars: Stage 7, day 14, 2 μM R428 or 2-5 μM inhibitor substituted for R428, H1-derived cells, mRNA. On the procedure: (§1) Cells of the human embryonic stem cell line H1 (WA01) were seeded as single cells at 1×10^5 cells/cm^2 on MATRIGEL™ (1:30 dilution) coated dishes in E8 media. At about 70 to 80% confluency, the cultures were washed in 1× incomplete DPBS followed by incubation with 1× TrypLE™ Express Enzyme for 3 to 5 minutes at 37° C. The released cells were rinsed with E8 and spun at 1000 rpm for 5 minutes. The resulting cell pellet was resuspended in E8 supplemented with 10 μM Y-27632 and the single cell suspension was seeded at approximately 1.3 to 1.5×10^5 cells/cm^2. The cultures were fed every day with E8 medium and differentiation, according to the following protocol, was initiated 48 hrs. following seeding resulting in an about 90% starting confluency.
Stage 6 cells were cultured for fourteen days in BLAR medium supplemented with a 1:100 dilution of ITS-X; 20 mM glucose (final); 1.5 g/L sodium bicarbonate; 2% FAF-BSA; 10 μg/ml of heparin, 10 μM ZnSO4, 1 μM T3 as 3,3′, 5-triiodo-L-thyronine sodium salt, 10 μM ALK5 inhibitor II, 1 mM N-acetyl cysteine. Some cultures also included one of 2 μM R428, 2-5 μM RSK inhibitor II (2-(3,5-Difluoro-4-hydroxy-anilino)-8-isopentyl-5,7-dimethyl-7H-pteridin-6-one) (EMD Millipore; Catalog No, 559286-5MG), 2-5 μM aurora kinase inhibitor II (EMD Millipore, or a combination of 2-5 μM RSK inhibitor II and 2-5 μM aurora kinase II inhibitor.
At Stage 7, day 14, mRNA was collected and compared to undifferentiated human stem cells.

The subject of assay [2] is MAFA expression. The assay is described as follows: Small molecule screen at Stage 6 or 7, real-time PCR (Example 2). To be noted: added at Stage 6, 1 μM, H1-derived cells at air-liquid interface. On the procedure:
Cells of the human embryonic stem cell line H1 (WA01) at passage 42 were seeded as single cells at 1×10^5 cells/cm^2 on MATRIGEL™ (1:30 dilution)-coated dishes in a media comprising of DMEM-F12, GlutaMAX™ (1:100 dilution), 0.25 mM ascorbic acid, 100 ng/ml of FGF2 (R & D systems, MN), 1 ng/ml of TGF-β, ITS-X (1:100 dilution), 2% FAF-BSA, and 20 ng/ml of IGF-1, supplemented with 10 μM of Y-27632. Forty-eight hours post-seeding, the cultures were washed in incomplete PBS (phosphate buffered saline without Mg or Ca) followed by incubation with 1× TrypLE™ Express Enzyme (Life Science; Catalog No. 14190) for 3 to 5 minutes at 37° C. The released cells were rinsed with DMEM-F12 and spun at 1000 rpm for 5 minutes. The resulting cell pellet was resuspended in DMEM-F12 supplemented with 10 μM Y-27632, 1× GlutaMAX™, 0.25 mM ascorbic acid, 100 ng/ml FGF2, 1 ng/ml TGF-β, ITS-X at a 1:100 dilution, 2% FAF-BSA and 20 ng/ml of IGF-1 and the single cell suspension was seeded at approximately 1.3 to 1.5×10^5 cells/cm^2. The cultures were fed every day with medium and differentiation, according to the following protocol, was initiated 48 hours following seeding resulting in an about 90% starting confluency. […]
At Stages 6 or 7, various small molecules were added and their effect was evaluated by real-time PCR.

In assay [3] the test system is MAFA expression. The assay is described as follows: Stage 7 treatment, real-time PCR of MAFA (Example 6). Particulars: Stage 7, day 7, 2 μM in Stage 7 medium, H1-derived cells, mRNA. On the procedure:
as §1, with “TrypLET™” for “TrypLE™”
(§2) Stage 6 cells were cultured for seven days in BLAR medium supplemented with a 1:100 dilution of ITS-X; 20 mM glucose (final); 1.5 g/L sodium bicarbonate; 2% FAF-BSA; 10 μg/ml of heparin, 10 μM ZnSO4, 1 μM T3 as 3,3′, 5-triiodo-L-thyronine sodium salt, 10 μM ALK5 inhibitor II, 1 mM N-acetyl cysteine. […]
(§3) At Stage 7, day 7, mRNA was collected and expression of MAFA, UCN3, PDX1, NKX6.1, insulin and G6PC2 evaluated as compared to undifferentiated human stem cells. […]

The test system of a further assay is UCN3 expression. The assay is described as follows: Stage 7 treatment, real-time PCR of UCN3 (Example 6). To be noted: Stage 7, day 7, 2 μM in Stage 7 medium, H1-derived cells, mRNA. On the procedure:
as §1, with “TrypLET™” for “TrypLE™”
as §2, §3

The subject of a further assay is G6PC2 expression. The assay is described as follows: Stage 7 treatment, real-time PCR of G6PC2 (Example 6). Particulars: Stage 7, day 7, 2 μM in Stage 7 medium, H1-derived cells, mRNA. On the procedure: as §1, with “TrypLET™” for “TrypLE™”
as §2, §3

In the case of `CC(C)CCN1c2nc(Nc3cc(F)c(O)c(F)c3)ncc2N(C)C(=O)C1C` (racemic) [RSK inhibitor, 2-(3,5-Difluoro-4-hydroxy-anilino)-8-isopentyl-5,7-dimethyl-7H-pteridin-6-one], the MAFA expression result in the assay with MAFA expression [1] is on record as “restored MAFA expression”.
Turning to `CC(C)N(C[C@H]1O[C@@H](n2cnc3c(N)ncnc32)[C@H](O)[C@@H]1O)[C@H]1C[C@@H](CCc2nc3ccc(C(C)(C)C)cc3[nH]2)C1` [EPZ-5676, 9H-Purin-6-amine, 9-[5-deoxy-5-[[cis-3-[2-[6-(1,1-dimethylethyl)-1H-benzimidazol-2-yl]ethyl]cyclobutyl](1-methylethyl)amino]-β-D-ribofuranosyl]-], in the assay with MAFA expression [2], the “expression of MAFA as compared to untreated cultures” value is “significantly upregulated”.
With `COc1cc2ncnc(Nc3ccc(NC(=O)c4ccccc4)cc3)c2cc1OC` [aurora kinase inhibitor II, 4-(4′-Benzamidoanilino)-6,7-dimethoxyquinazoline], the MAFA expression entry is reported as “increase in MAFA expression” in the assay with MAFA expression [3] and “restored MAFA expression” in the assay with MAFA expression [1]. For the same compound, the UCN3 expression result in the assay on UCN3 expression is “maintenance of UCN3 and G6PC2 expression”. For the same compound, the G6PC2 expression result in the assay on G6PC2 expression is “maintenance of UCN3 and G6PC2 expression”.
